Counter-ions that a name gives are not always drawn.
Key:
[1] = tested on: superior mesenteric artery (contracted by potassium chloride); experiment: Vessel Smooth Muscle Relaxation Action (V.R.); type: cell-based, rabbit; conditions: Oryctolagus cuniculus; concentration relaxing KCl-contracted strain to 50%; cumulative administration; read-out: V.R. (ED50)
Excerpt: The specimen was suspended by loading a strain in Krebs-Henseleit solution through which an oxygen gas containing 5% carbon dioxide was bubbled. The specimen was contracted by adding potassium chloride to maintain a predetermined strain. Thereafter, a test compound was cumulatively administrated.

[2] = target: Calmodulin-Dependent Phosphodiesterase (Ca^2+ PDE); experiment: Calmodulin-Dependent Phosphodiesterase Inhibition (Ca^2+ PDE); type: biochemical, rat; conditions: [^3 H]-cGMP, 30° C.
Procedure: Phosphodiesterase (Ca^2+ PDE)Ca^2+ PDE was partially purified from the brain of rat by DEAE-Sepharose column chromatography.
Calmodulin was purified from the calf brain using a calmodulin inhibitor W-7 affinity column.
A reaction mixture contained 20 μl of 500 mM Tris-HCl (pH 8.0), 20 μl of 50 mM MgCl2, 20 μl of 2 mM CaCl2 (or 10 mM EGTA), 20 μl of 1 mg/ml bovine serum albumin, PDE, […] of calmodulin, test sample and distilled water to make total volume 200 μl. To the mixture was added 20 μl of 4 μM [^3 H]-cGMP (2.5 μCi/ml), the mixture was incubated at 30° C. for 15 minutes, and then heated in boiling water for 3 to 5 minutes to terminate the reaction, and cooled in ice-water bath. 20 μg of 5'-nucleotidase (Snake venum) was added to the mixture, and the mixture was again incubated at 30° C. for 10 minutes. After addition of about 2 ml of water, the sample was applied to a cation exchange resin column (Biorad AG.AG50W-X4 to adsorbe the [^3 H]-guanosine and additionally about 2 ml of washing water for the sample was added to the column. The column was washed with about 20 ml of water, and the adsorbed [^3 H]-guanosine was eluted with 3 ml of 3N NH4 OH, and the elute was directly received by a vial. After an addition of 10 ml of an emulsified scintillation solution (ACS-II, AMERSHAM) the radio activity was measured by a scintillation counter LS7500 (Beckmann). The enzyme activity in the presence of calmodulin was taken as […], and a concentration of a test compound in μM which provides a 50% inhibition was expressed as IC50.

| SMILES | EC50 [1] [µM] | IC50 [2] [µM] |
| --- | --- | --- |
| O=C([C@H](Cc1ccc(OS(=O)(=O)c2cccc3cnccc23)cc1)NS(=O)(=O)c1cccc2cnccc12)N1CCN(c2ccccc2)CC1 [Example 108, 1-[N,O-Bis(5-Isoquinolinesulfonyl)Tyrosyl]-4-Phenylpiperazine] | 1.2 | 10 |
| CN(C(Cc1ccc(O)cc1)CN1CCCN(c2ccccc2)CC1)S(=O)(=O)c1cccc2cnccc12 (centres unmarked) [Example 83, N-[1-(P-Hydroxybenzyl)-2-(4-Phenylhomopiperazinyl)Ethyl]-N-Methyl-5-Isoquinolinesulfonamide] | 0.39 | 24 |
| CN(c1ccccc1NCC=Cc1ccc(Cl)cc1)S(=O)(=O)c1cccc2cnccc12 [Example 143, N-[2-(4-Chlorocinnamylamino)Phenyl]-N-Methyl-5 -Isoquinolinesulfonamide] | 0.82 | 15 |
| O=S(=O)(c1cccc2cnccc12)N(Cc1ccc(Cl)c(Cl)c1)C(Cc1ccc(O)cc1)CN1CCC(O)CC1 (centres unmarked) [Example 105, N-3,4-Dichlorobenzyl-N-[1-(P-Hydroxybenzyl)-2-(4-Hydroxypiperidino)Ethyl]-5-Isoquinolinesulfonamide] | 5.4 | 12 |
| O=C(CCc1ccccc1)N1CCCN(CC(Cc2ccc(O)cc2)NS(=O)(=O)c2cccc3cnccc23)CC1 (centres unmarked) [Example 119, N-{1-(P-Hydroxybenzyl)-2-[4-(3-Phenylpropionyl)Homopiperazinyl]Ethyl}-5-Isoquinolinesulfonylamide] | 11 | 51 |
| CN(C(Cc1ccc(OS(=O)(=O)c2cccc3cnccc23)cc1)CN1CCC(O)CC1)S(=O)(=O)c1cccc2cnccc12 (centres unmarked) [Example 99, N-{2-(4-Hydroxypiperidino)-1-[P-(5-Isoquinolinesulfonyloxy)Benzyl]Ethyl}-N-Methyl-5-Isoquinolinesulfonamide] | 2.8 | 61 |
| O=S(=O)(NC(Cc1ccc(OCc2ccccc2)cc1)CN1CCN(c2ccccc2)CC1)c1cccc2cnccc12 (centres unmarked) [Example 88, N-{1-[(4-benzyloxy)benzyl]-2-(4-phenylpiperazinyl)ethyl}-5-isoquinolinesulfonamide] | 4.3 | 14 |
| O=S(=O)(NCCNCC#Cc1ccc(Cl)cc1)c1cccc2cnccc12 [Example 189-I, N-{2-[3-(4-Chlorophenyl)-2-Propynylamino]Ethyl}-5-Isoquinolinesulfonamide] | 0.22 | 2.7 |
| O=S(=O)(Nc1ncccc1NCC=Cc1ccc(Cl)cc1)c1cccc2cnccc12 [Example 147, 3-(4-Chlorocinnamylamino)-2-(5-Isoquinolinesulfonylamino)Pyridine] | 1.2 | 42 |
| O=CN(CC=Cc1ccc(Cl)cc1)CCNS(=O)(=O)c1cccc2cnccc12 [Example 193, N-[2-(4-Chloro-N-Formylcinnamylamino)ethyl]-5-Isoquinolinesulfonamide] | 3.2 | 12 |
| CN(C(Cc1ccc(O)cc1)CN1CCC(c2ccccc2)CC1)S(=O)(=O)c1cccc2cnccc12 (centres unmarked) [Example 93, N-[1-(p-hydroxybenzyl)-2-(4-phenylpiperidino)ethyl]-N-methyl-5-isoquinolinesulfonamide] | 0.31 | 3.4 |
| O=S(=O)(c1cccc2cnccc12)N(CC#Cc1ccc(Cl)cc1)CCNCC#Cc1ccc(Cl)cc1 [Example 189-III] | 0.29 | 1 |
| CN(C(Cc1cnc[nH]1)CN1CCN(c2ccccc2)CC1)S(=O)(=O)c1cccc2cnccc12 (centres unmarked) [Example 4, N-[1-(Imidazol-4(5)-Yl-Methyl)-2-(4 -Phenylpiperazinyl)Ethyl]-N-Methyl-5-Isoquinoline Sulfonamide] | 12 | 53 |
| O=S(=O)(NCCNCC=Cc1cccc2ccccc12)c1cccc2cnccc12 [Example 184, N-{2-[3-(1-Naphthyl)-2-Propenylamino]ethyl}-5-Isoquinolinesulfonamide] | 2.8 | 12 |
| COc1ccc(CC(CN2CCC(OCc3ccc(Cl)c(Cl)c3)CC2)N(C)S(=O)(=O)c2cccc3cnccc23)cc1 (centres unmarked) [Example 91, N-{2-[4-(3,4-Dichlorobenzyloxy)Piperidine]-1-(P-Methoxybenzyl)Ethyl}-N-Methyl-5-Isoquinolinesulfonamide] | 1.1 | 10 |
| CCN(CC=Cc1ccc(Cl)cc1)CCN(CC)S(=O)(=O)c1cccc2cnccc12 [Example 192, N-Ethyl-N-[2-(4-Chloro-N-Ethylcinnamylamino)Ethyl]-5-Isoquinolinesulfonamide] | 0.12 | 84 |
| CN(C(Cc1ccc(N)cc1)C(=O)N1CCN(c2ccccc2)CC1)S(=O)(=O)c1cccc2cnccc12 (centres unmarked) [Example 13, 1-[P-Amino-N-(5-Isoquinolinesulfonyl)-N-Methylalanyl]-4-Phenylpiperazine] | 1.2 | 15 |

| SMILES | EC50 [1] [µM] | IC50 [2] [µM] |
| --- | --- | --- |
| O=C(C(Cc1ccc([N+](=O)[O-])cc1)NS(=O)(=O)c1cccc2cnccc12)N1CCN(c2ccccc2)CC1 (centres unmarked) [Example 11, 1-[N-(5-Isoquinolinesulfonyl)-P-Nitrophenylalanyl]-4-Phenylpiperazine] |  | 59 |
| Cc1ccc(S(=O)(=O)Nc2ccc(CC(NS(=O)(=O)c3cccc4cnccc34)C(=O)N3CCN(c4ccccc4)CC3)cc2)cc1 (centres unmarked) [Example 15, 1-[N-(5-Isoquinolinesulfonyl)-P-(P-Toluenesulfonylamino)Phenylalanyl]-4-Phenylpiperazine] |  | 43 |
| O=C(CCc1ccccc1)N1CCN(C(=O)[C@H](Cc2ccc(O)cc2)NS(=O)(=O)c2cccc3cnccc23)CC1 [Example 31, 1-[N-(5-isoquinolinesulfonyl)tyrosyl]-4-(3-phenylpropionyl)piperazine] | 24 ± 7 |  |
| CC(C=Cc1ccccc1)NCCNS(=O)(=O)c1cccc2cnccc12 (stereo not drawn) [Example 202, N-[2-(α-Methylcinnamylamino)Ethyl]-5-Isoquinolinesulfonamide 1/2 Fumarate] | 1.3 |  |
| Cc1ccc(COC2CCN(CC(Cc3ccc(OS(=O)(=O)c4cccc5cnccc45)cc3)NS(=O)(=O)c3cccc4cnccc34)CC2)cc1 (centres unmarked) [Example 84] | 43 |  |
| COCCOCOc1ccc(C=CCNCCNS(=O)(=O)c2cccc3cnccc23)cc1 [Example 182, N-{2-[4-(2-Methoxyethoxy)Methoxycinnamylamino]Ethyl}-5-Isoquinolinesulfonamide] | 17 |  |
| O=S(=O)(NC(Cc1ccc(O)cc1)CN1CCN(c2ccccc2)CC1)c1cccc2cnccc12 (centres unmarked) [Example 37, N-[1-(p-hydroxybenzyl)-2-(4-phenylpiperazinyl)ethyl]-5-isoquinolinesulfonamide] | 4.4 |  |
| O=S(=O)(NC(Cc1cnc[nH]1)CN1CCN(c2ccccc2)CC1)c1cccc2cnccc12 (centres unmarked) [Example 2, N-[1-(Imidazol-4(5)-Yl-Methyl)-2-(4-Phenylpiperazinyl)Ethyl]-5-IsoquinolineSulfonamide] | 47 |  |
| CC(C=Cc1ccccn1)NCCNS(=O)(=O)c1cccc2cnccc12 (centres unmarked) [Example 162, N-{2-[1-Methyl-3-(2-Pyridyl)-2-Propenylamino]Ethyl}-5-Isoquinolinesulfonamide] | 35 |  |
| CN(C(Cc1ccc(O)cc1)CN1CCN(c2ncccn2)CC1)S(=O)(=O)c1cccc2cnccc12 (centres unmarked) [Example 42, N-{1-(p-hydroxybenzyl)-2-[4-(2-pyrimidyl)piperazinyl]ethyl}-N-methyl-5-isoquinolinesulfonamide] | 6.2 |  |
| O=C(OCc1ccccc1)N1CCCN(CC(Cc2ccc(O)cc2)NS(=O)(=O)c2cccc3cnccc23)CC1 (centres unmarked) [Example 116, N-{2-(4-benzyloxycarbonylhomopiperazinyl)-1-(p-hydroxybenzyl)ethyl}-5-isoquinolinesulfonamide] | 1.5 |  |
| CN(C(Cc1ccc(OS(=O)(=O)c2cccc3cnccc23)cc1)CN1CCC(c2ccccc2)CC1)S(=O)(=O)c1cccc2cnccc12 (centres unmarked) [Example 92, N-{1-[p-(5-isoquinolinesulfonyloxy)benzyl]-2-(4-phenylpiperidino)ethyl}-N-methyl-5-isoquinolinesulfonamide] |  | 63 |
| CN(C(Cc1ccc(O)cc1)CN1CCC(O)CC1)S(=O)(=O)c1cccc2cnccc12 (centres unmarked) [Example 100] | 95 |  |
| O=S(=O)(NCCNCC=Cc1ccc(O)cc1)c1cccc2cnccc12 [Example 183, N-[2-(4-Hydroxycinnamylamino)ethyl]-5-Isoquinolinesulfonamide] | 2.8 |  |
| Cc1ccc(COC2CCN(CC(Cc3ccc(O)cc3)NS(=O)(=O)c3cccc4cnccc34)CC2)cc1 (centres unmarked) [Example 85, N-{1-(P-Hydroxybenzyl)-2-{4-(P-Methylbenzyloxy)Piperidino]Ethyl}-Isoquinolinesulfonamide] |  | 75 |
| O=S(=O)(NCCN(CC=Cc1ccc(Cl)cc1)Cc1ccc(O)cc1)c1cccc2cnccc12 [Example 194, N-{2-[4-Chloro-N-(4-Hydroxybenzyl)Cinnamylamino]ethyl}-5-Isoquinolinesulfonamide] |  | 80 |

— patent US5245034A, “Compound having vessel smooth muscle relaxation activity” (Hidaka; Kiroyoshi, priority 1988, dated 1993)
